Assay results taken from patent US7858349B2, “Anti-cancer compounds” (The Regents of the University of Colorado, priority 1999, dated 2010).
pIC50: −log10 of the molar value.

Key:
SCLC strain SHP-77 = assay: MTT assay for cell survival, SCLC SHP-77 in vitro; assay type: cell-based, human; details: ED50 for killing of SCLC strain SHP-77 in vitro, 4 days, 0 = no detectable activity, read-out: SCLC SHP-77 IC50
PC3 PC cells = assay: Inhibition of PC3 tumor growth in vivo in nude mice; set-up: species or system athymic nude mice; key to PC3 In vivo % inhib.: an IC50 value of “0” represents no detectable anti-cancer activity for a drug in a given cell line; “Stim.” indicates the observation of a stimulatory activity on the growth of the cancer cell line; details: percent inhibition of tumor growth in nude mice; prostate cancer; i.p. 5 mg/kg/every second day or 10 mg/kg/every fourth day
Description: Compounds having high in vitro cytotoxic activity were tested against implanted tumors in vivo. Athymic nude mice were implanted subcutaneously with suspensions (2 million SHP-77 SCLC cells, 1 million A549 NSCLC cells or 1.5 million PC3 PC cells) in Matrigel suspension. On the eighth day after tumor implantation groups of 5 mice bearing implants were injected intraperitoneally with the compounds being tested at 5 mg/kg/every second day or at 10 mg/kg/every fourth day; control animals were injected with an equal volume of isotonic saline. Less soluble compounds were initially dissolved in dimethyl sulfoxide (DMSO) and diluted with medium. In those cases the control injections contained the same concentration of DMSO. Tumor size was measured with a caliper three times per week. Tumor volume was calculated by the formula: Volume(cc)=3.14×(length)×(width)^2/6 At autopsy tumors were removed and weighed. Tumor inhibition was calculated on both weight and measurement basis. In each Table, an IC50 value of “0” represents no detectable anti-cancer activity for a drug in a given cell line and “Stim.” indicates the observation of a stimulatory activity on the growth of the cancer cell line.

In the case of COc1ccc2c(c1)c(CC(=O)NC(Cc1ccc(OCc3c(Cl)cccc3Cl)cc1)C(=O)NC1CN3CCC1CC3)c(C)n2C(=O)c1ccc(Cl)cc1 [Analog M-1590, Indo-OC2Y-(S)-Aqu], the pIC50 (SCLC strain SHP-77) was 5.39 and the “PC3 In vivo % inhib.” value (PC3 PC cells) was “Stim”.

CC1(C)CC(NC(=O)[C@H](Cc2ccc(OCc3c(Cl)cccc3Cl)cc2)NC(=O)c2ccc(N)cc2O)CC(C)(C)N1 [Analog M-1592, Pas-OC2Y-Atmp] was tested, and the pIC50 (SCLC strain SHP-77) was 5.14 and the “PC3 In vivo % inhib.” value (PC3 PC cells) was “Stim”.

In the case of CC1(C)CC(NC(=O)[C@H](Cc2ccc(OCc3c(Cl)cccc3Cl)cc2)NCc2c(F)c(F)c(F)c(F)c2F)CC(C)(C)N1 [Analog M-1594, F5b-OC2Y-Atmp], the pIC50 (SCLC strain SHP-77) was 5.51 and the “PC3 In vivo % inhib.” value (PC3 PC cells) was 20%.

In the case of CC1(C)CC(NC(=O)[C@H](Cc2ccc(OCc3c(Cl)cccc3Cl)cc2)NCC=C(c2ccccc2)c2ccccc2)CC(C)(C)N1 [Analog M-1600, Pcnl-OC2Y-Atmp], the pIC50 (SCLC strain SHP-77) was 5.39 and the “PC3 In vivo % inhib.” value (PC3 PC cells) was 44%.

With CC1(C)CC(NC(=O)[C@H](Cc2ccc(OCc3c(Cl)cccc3Cl)cc2)NC(=O)c2c3ccccc3nc3ccccc23)CC(C)(C)N1 [Analog M-1602, Acrc-OC2Y-Atmp] the pIC50 (SCLC strain SHP-77) was 5.80 and the “PC3 In vivo % inhib.” value (PC3 PC cells) was “Stim”.

For CC1(C)CC(NC(=O)[C@H](Cc2ccc(OCc3c(Cl)cccc3Cl)cc2)NCc2cnc3ccccc3c2)CC(C)(C)N1 [Analog M-1604, 3Qum-OC2Y-Atmp], the pIC50 (SCLC strain SHP-77) was 5.13 and the “PC3 In vivo % inhib.” value (PC3 PC cells) was “Stim”.

With CC1(C)CC(NC(=O)[C@H](Cc2ccc(OC(=O)OCc3ccccc3Br)cc2)NC(=O)/C=C/c2c(F)c(F)c(F)c(F)c2F)CC(C)(C)N1 [Analog M-1608, F5c-ObrZY-Atmp] the pIC50 (SCLC strain SHP-77) was 5.00 and the “PC3 In vivo % inhib.” value (PC3 PC cells) was 29%.

In the case of Cc1ncc(CO)c(CN[C@@H](Cc2ccc(OCc3c(Cl)cccc3Cl)cc2)C(=O)NC2CC(C)(C)NC(C)(C)C2)c1O [Analog M-1610, B6-OC2Y-Atmp], the pIC50 (SCLC strain SHP-77) was < 4.22 and the “PC3 In vivo % inhib.” value (PC3 PC cells) was “Stim”.

With Cc1ncc(COP(=O)(O)O)c(CN[C@@H](Cc2ccc(OCc3c(Cl)cccc3Cl)cc2)C(=O)NC2CC(C)(C)NC(C)(C)C2)c1O [Analog M-1612, B6P-OC2Y-Atmp] the pIC50 (SCLC strain SHP-77) was < 4.22 and the “PC3 In vivo % inhib.” value (PC3 PC cells) was “Stim”.

C=CCN1C(C)CN(C(=O)C(Cc2ccc(OCc3c(Cl)cccc3Cl)cc2)NC(=O)C=Cc2c(F)c(F)c(F)c(F)c2F)CC1C (stereo not shown) [Analog M-1614, F5c-OC2Y-cDmap] was tested, and the pIC50 (SCLC strain SHP-77) was 5.70 and the “PC3 In vivo % inhib.” value (PC3 PC cells) was 54%.

For CC1(C)CC(NC(=O)[C@H](Cc2ccc(OCc3c(Cl)cccc3Cl)cc2)NC(=O)CCP(=O)(O)O)CC(C)(C)N1 [Analog M-1616, 3Php-OC2Y-Atmp], the pIC50 (SCLC strain SHP-77) was < 4.22 and the “PC3 In vivo % inhib.” value (PC3 PC cells) was 18%.

For CC1(C)CC(NC(=O)[C@H](Cc2ccc(OCc3c(Cl)cccc3Cl)cc2)NC(=O)c2ccc3c(c2)C(=O)c2ccccc2C3=O)CC(C)(C)N1 [Analog M-1618, Aq2c-OC2Y-Atmp], the pIC50 (SCLC strain SHP-77) was 5.66 and the “PC3 In vivo % inhib.” value (PC3 PC cells) was 10%.

In the case of Cc1ncc(CO)c(CNC(=O)[C@H](Cc2ccc(OCc3c(Cl)cccc3Cl)cc2)NC(=O)/C=C/c2c(F)c(F)c(F)c(F)c2F)c1O [Analog M-1622, F5c-OC2Y-Pxa], the pIC50 (SCLC strain SHP-77) was 4.66 and the “PC3 In vivo % inhib.” value (PC3 PC cells) was 58%.

In the case of O=C(/C=C/c1c(F)c(F)c(F)c(F)c1F)N[C@@H](Cc1ccc(OCc2c(Cl)cccc2Cl)cc1)C(=O)NCc1nc2ccccc2[nH]1 [Analog M-1624, F5c-OC2Y-Ambi], the pIC50 (SCLC strain SHP-77) was 4.30 and the “PC3 In vivo % inhib.” value (PC3 PC cells) was 68%.

CC1(C)CC(NC(=O)C(Cc2ccc(OCc3c(Cl)cccc3Cl)cc2)NC(=O)C2CSC(=O)N2)CC(C)(C)N1 (stereo not shown) [Analog M-1630, Otac-OC2Y-Atmp] was tested, and the pIC50 (SCLC strain SHP-77) was 4.22 and the “PC3 In vivo % inhib.” value (PC3 PC cells) was 71%.

In the case of O=C(/C=C/c1c(F)c(F)c(F)c(F)c1F)N[C@@H](Cc1ccc(OCc2c(Cl)cccc2Cl)cc1)C(=O)NCCN1CCOCC1 [Analog M-1632, F5c-OC2Y-Aem], the pIC50 (SCLC strain SHP-77) was 5.11 and the “PC3 In vivo % inhib.” value (PC3 PC cells) was 32%.

With O=C([C@H](Cc1ccc(OCc2c(Cl)cccc2Cl)cc1)NCc1c(F)c(F)c(F)c(F)c1F)N1CCN(C/C=C/c2ccccc2)CC1 [Analog M-1634, F5b-OC2Y-tCip] the pIC50 (SCLC strain SHP-77) was < 4.22 and the “PC3 In vivo % inhib.” value (PC3 PC cells) was “Stim”.

With CC1(C)CC(NC(=O)[C@H](Cc2ccc(OCc3c(Cl)cccc3Cl)cc2)NC(=O)C(C#N)=Cc2ccc(O)cc2)CC(C)(C)N1 [Analog M-1638, Chc-OC2Y-Atmp] the pIC50 (SCLC strain SHP-77) was 4.74 and the “PC3 In vivo % inhib.” value (PC3 PC cells) was 39%.

With CC1(C)CC(NC(=O)C(Cc2ccc(OCc3c(Cl)cccc3Cl)cc2)NC(=O)C=Cc2ccc(N)cc2)CC(C)(C)N1 (stereo not shown) [Analog M-1648, Pac-OC2Y-Atmp] the pIC50 (SCLC strain SHP-77) was 5.12 and the “PC3 In vivo % inhib.” value (PC3 PC cells) was 28%.

In the case of CC1(C)CC(NC(=O)[C@H](Cc2ccc(OCc3c(Cl)cccc3Cl)cc2)NC(=O)CC2CC3CCC2C3)CC(C)(C)N1 (stereo partly shown) [Analog M-1650, Nba-OC2Y-Atmp], the pIC50 (SCLC strain SHP-77) was 5.37 and the “PC3 In vivo % inhib.” value (PC3 PC cells) was 40%.
